We go through 61 compounds from ChEMBL document CHEMBL1133521, “Multiple-conformation and protonation-state representation in 4D-QSAR: the neurokinin-1 receptor system” (J Med Chem, 2000).

As a reminder, the IC50 is the midpoint of a concentration-inhibition curve. Lower therefore signals greater potency.

The target of this assay is Substance-P receptor (Homo sapiens, UniProt P25103). Description: Inhibitory activity against Tachykinin receptor 1.
Substance-P receptor, sequence (P25103 whole entry): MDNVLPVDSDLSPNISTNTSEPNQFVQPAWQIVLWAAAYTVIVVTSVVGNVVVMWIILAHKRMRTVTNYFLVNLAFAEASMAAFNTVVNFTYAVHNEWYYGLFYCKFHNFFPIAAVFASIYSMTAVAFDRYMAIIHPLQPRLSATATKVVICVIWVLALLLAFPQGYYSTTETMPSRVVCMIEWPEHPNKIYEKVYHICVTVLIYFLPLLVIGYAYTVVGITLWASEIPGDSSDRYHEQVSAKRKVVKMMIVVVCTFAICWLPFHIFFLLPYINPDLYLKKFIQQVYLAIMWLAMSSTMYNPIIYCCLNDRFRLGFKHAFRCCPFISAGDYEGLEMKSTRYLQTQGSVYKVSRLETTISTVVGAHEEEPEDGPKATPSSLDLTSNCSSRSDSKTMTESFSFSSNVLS
The compound `CC(C)Oc1cccc(CC(=O)NCC(c2ccc(Cl)c(Cl)c2)N2CCC(N3CCCCC3)CC2)c1` (stereo unspecified) gave a 50% inhibitory concentration (IC50) of 5 nM.

On to `COc1ccccc1C(CNC(=O)Cc1cccc(OC(C)C)c1)N1CCN(C2CCCCC2)CC1` (stereo unspecified), for which the half-inhibitory concentration (IC50) is 130 nM. The result for `CN(CC(c1ccc2c(c1)OCCO2)N1CCC(N2CCCCC2)CC1)C(=O)Cc1cc(C(F)(F)F)cc(C(F)(F)F)c1` (stereo unspecified) reads 8.9 nM. The compound `COc1ccccc1C(CNC(=O)Cc1cc(C(F)(F)F)cc(C(F)(F)F)c1)N1CCN(C2Cc3ccccc3C2)CC1` (stereo unspecified) had an IC50 of 7.2 nM. `O=C(Cc1cc(C(F)(F)F)cc(C(F)(F)F)c1)NCC(c1cccc(C(F)(F)F)c1F)N1CCC(N2CCCCC2)CC1` (stereo unspecified) came in with an IC50 of 1.7 nM. Consider `CN(CC(c1cccc2c1OCO2)N1CCN(C2CCCCC2)CC1)C(=O)Cc1cc(C(F)(F)F)cc(C(F)(F)F)c1` (stereo unspecified), for which half-maximal inhibition (IC50) was put at 1.3 nM. The IC50 values of the last two compounds are within 1.5-fold of each other. `O=C(Cc1cc(C(F)(F)F)cc(C(F)(F)F)c1)NCC(c1cccc2ccccc12)N1CCN(C2CCCCC2)CC1` (stereo unspecified) had an IC50 of 2.8 nM. `O=C(Cc1cc(C(F)(F)F)cc(C(F)(F)F)c1)NCC(c1ccc(Cl)c(Cl)c1)N1CCC(N(CCO)CCO)CC1` (stereo unspecified) yielded an IC50 of 5.2 nM. The result for `CN(CC(c1cccc2c1OCO2)N1CCC(N2CCCCC2)CC1)C(=O)Cc1ccccc1Cl` (stereo unspecified) reads 12 nM; that for `Cc1c(F)cccc1C(CNC(=O)Cc1cc(C(F)(F)F)cc(C(F)(F)F)c1)N1CCC(N2CCCCC2)CC1` (stereo unspecified), 3 nM. Turning to `O=C(Cc1cc(C(F)(F)F)cc(C(F)(F)F)c1)NCC(c1ccc(Cl)c(Cl)c1)N1CCC(N2CCCCC2)CC1` (stereo unspecified), it took 0.75 nM to reach half-maximal inhibition (IC50).

In the case of `CN(CC(Cc1ccccc1)N1CCC(N2CCCCC2)CC1)C(=O)Cc1cc(C(F)(F)F)cc(C(F)(F)F)c1` (stereo unspecified), the half-maximal inhibitory concentration (IC50) amounted to 32 nM. Against the preceding compound, the IC50 is about 43-fold higher. Compound `O=C(Cc1cc(C(F)(F)F)cc(C(F)(F)F)c1)N1CCCCC1C(CN1CCC(N2CCCCC2)CC1)c1ccccc1` (stereo unspecified) yielded an IC50 of 1500 nM. The result for `COc1ccc(CC(=O)NCC(c2ccccc2OC)N2CCN(C3CCCCC3)CC2)cc1` (stereo unspecified) reads 2200 nM; that for `COc1cccc(C(CNC(=O)Cc2cc(C(F)(F)F)cc(C(F)(F)F)c2)N2CCC(N3CCCCC3)CC2)c1` (stereo unspecified), 1.5 nM; that for `CN(CC(c1ccc(Cl)c(Cl)c1)N1CCC(N2CCCCC2)CC1)C(=O)Cc1cc(C(F)(F)F)cc(C(F)(F)F)c1` (stereo unspecified), 2.3 nM. `O=C(Cc1cc(C(F)(F)F)cc(C(F)(F)F)c1)NCC(c1cccc2c1OCO2)N1CCN(C2CCCCC2)CC1` (stereo unspecified): the half-maximal inhibitory concentration (IC50) was 1.6 nM. `COc1ccc(C(CN(C)C(=O)Cc2cc(C(F)(F)F)cc(C(F)(F)F)c2)N2CCC(N3CCCCC3)CC2)c(OC)c1OC` (stereo unspecified) registered a half-inhibitory concentration (IC50) of 12 nM. The figure for `CN(CC(c1cccc(C(F)(F)F)c1F)N1CCC(N2CCCCC2)CC1)C(=O)Cc1cc(C(F)(F)F)cc(C(F)(F)F)c1` (stereo unspecified) is 1.4 nM; for `COc1ccccc1C(CNC(=O)Cc1ccccc1C(F)(F)F)N1CCN(C2CCCCC2)CC1` (stereo unspecified) it is 270 nM. In turn, `O=C(Cc1cc(C(F)(F)F)cc(C(F)(F)F)c1)NCC(C(c1ccccc1)c1ccccc1)N1CCC(N2CCCCC2)CC1` (stereo unspecified) showed a 50% inhibitory concentration (IC50) of 130 nM. This IC50 is about 2.1-fold lower than that of the compound before.

For the compound `COc1cccc(C(CN(C)C(=O)Cc2cc(C(F)(F)F)cc(C(F)(F)F)c2)N2CCC(N3CCCCC3)CC2)c1OC` (stereo unspecified), the 50% inhibitory concentration (IC50) amounted to 10 nM. `O=C(Cc1cc(C(F)(F)F)cc(C(F)(F)F)c1)NCC(Cc1ccccc1)N1CCC(N2CCCCC2)CC1` (stereo unspecified) gave a concentration for half-maximal inhibition (IC50) of 81 nM. Against the preceding compound, the IC50 is about 8.1-fold higher. The result for `CN(CC(c1ccccc1Br)N1CCC(N2CCCCC2)CC1)C(=O)Cc1cc(C(F)(F)F)cc(C(F)(F)F)c1` (stereo unspecified) reads 1.1 nM; that for `CC(C)N1CCN(C(CNC(=O)Cc2cc(C(F)(F)F)cc(C(F)(F)F)c2)c2cccc3c2OCO3)CC1` (stereo unspecified), 6.9 nM. The result for `Cc1c(F)cccc1C(CN(C)C(=O)Cc1cc(C(F)(F)F)cc(C(F)(F)F)c1)N1CCC(N2CCCCC2)CC1` (stereo unspecified) reads 1.4 nM; that for `COc1ccccc1C(CNC(=O)Cc1cc(C)cc(C)c1)N1CCC(N2CCCCC2)CC1` (stereo unspecified), 61 nM.

In the case of `COc1cc(C(=O)N(C)CC(c2cccc3c2OCO3)N2CCC(N3CCCCC3)CC2)cc(OC)c1OC` (stereo unspecified), the half-maximal inhibitory concentration (IC50) was 37 nM. Turning to `O=C(Cc1cc(C(F)(F)F)cc(C(F)(F)F)c1)NCC(c1cccc2ccccc12)N1CCC(N2CCCCC2)CC1` (stereo unspecified), the IC50 was 14 nM. The figure for `CN(CCc1cc(C(F)(F)F)cc(C(F)(F)F)c1)C(=O)C(Cc1c[nH]c2ccccc12)N1CCN(C2CCCCC2)CC1` (stereo unspecified) is 12 nM; for `CN(CC(c1cc(Cl)cc(Cl)c1Cl)N1CCC(N2CCCCC2)CC1)C(=O)Cc1cc(C(F)(F)F)cc(C(F)(F)F)c1` (stereo unspecified) it is 3 nM; for `CC(C)N1CCN(C(CN(C)C(=O)Cc2cc(C(F)(F)F)cc(C(F)(F)F)c2)c2cccc3c2OCO3)CC1` (stereo unspecified) it is 1.4 nM. `COc1ccccc1CC(=O)N(C)CC(c1cccc2c1OCO2)N1CCC(N2CCCCC2)CC1` (stereo unspecified) yielded an IC50 of 16 nM.

For the compound `COc1ccccc1C(CNC(=O)Cc1cc(C(F)(F)F)cc(C(F)(F)F)c1)N1CCC(N2CCCCC2)CC1` (stereo unspecified), the IC50 came out at 2.4 nM. `O=C(Cc1cc(C(F)(F)F)cc(C(F)(F)F)c1)NCC(c1ccc(F)c(F)c1)N1CCC(N2CCCCC2)CC1` (stereo unspecified) came in with an IC50 of 3.3 nM. The IC50 values of the last two compounds are within 1.5-fold of each other. The compound `COc1ccccc1C(C1CCCCN1C(=O)Cc1cc(C(F)(F)F)cc(C(F)(F)F)c1)N1CCC(N2CCCCC2)CC1` (stereo unspecified) returned an IC50 of 4.3 nM. The figure for `Cc1cc(C)cc(CC(=O)N(C)CC(c2cccc3c2OCO3)N2CCC(N3CCCCC3)CC2)c1` (stereo unspecified) is 2.9 nM. In turn, `O=C(Cc1cc(C(F)(F)F)cc(C(F)(F)F)c1)NCC(c1cccc(F)c1)N1CCC(N2CCCCC2)CC1` (stereo unspecified) registered an IC50 of 4.6 nM. This IC50 is about 1.6-fold higher than that of the compound before. As to `COc1ccccc1C(CNC(=O)Cc1cc(C(F)(F)F)cc(C(F)(F)F)c1)N1CCC(O)(c2ccccc2)CC1` (stereo unspecified), the half-maximal inhibitory concentration (IC50) was 130 nM. The figure for `COc1ccccc1C(CNC(=O)Cc1cc(C)cc(C)c1)N1CCN(C2CCCCC2)CC1` (stereo unspecified) is 15 nM; for `CN(CC(c1cccc2c1OCO2)N1CCC(N2CCCCC2)CC1)C(=O)Cc1ccccc1Br` (stereo unspecified) it is 6 nM. For `COc1cccc(C(CNC(=O)Cc2cc(C(F)(F)F)cc(C(F)(F)F)c2)N2CCC(N3CCCCC3)CC2)c1OC` (stereo unspecified), the half-inhibitory concentration (IC50) is 7.6 nM. Regarding `CN(CC(c1cccc2c1OCO2)N1CCC(N2CCCCC2)CC1)C(=O)C(c1ccccc1)c1ccccc1` (stereo unspecified), the IC50 is 22 nM. With `COc1ccc(OC)c(C(CNC(=O)Cc2cc(C(F)(F)F)cc(C(F)(F)F)c2)N2CCC(N3CCCCC3)CC2)c1` (stereo unspecified), the concentration for half-maximal inhibition (IC50) amounted to 110 nM. Compared with the last compound, the IC50 is about 5-fold higher. The result for `CC(C)C1CCN(C2CCN(C(CN(C)C(=O)Cc3cc(C(F)(F)F)cc(C(F)(F)F)c3)c3ccc(Cl)c(Cl)c3)CC2)CC1` (stereo unspecified) reads 15 nM; that for `CN(CC(c1ccc2c(c1)OCO2)N1CCC(N2CCCCC2)CC1)C(=O)Cc1cc(C(F)(F)F)cc(C(F)(F)F)c1` (stereo unspecified), 4.8 nM; that for `CN(CC(c1ccc(F)c(F)c1F)N1CCC(N2CCCCC2)CC1)C(=O)Cc1cc(C(F)(F)F)cc(C(F)(F)F)c1` (stereo unspecified), 1.8 nM. As for `COc1ccc(C(CNC(=O)Cc2cc(C(F)(F)F)cc(C(F)(F)F)c2)N2CCC(N3CCCCC3)CC2)c(OC)c1OC` (stereo unspecified), the IC50 was determined as 210 nM. This IC50 is about 120-fold higher than that of the compound before. The figure for `CN(CC(c1ccccc1)N1CCN(C2CCCCC2)CC1)C(=O)Cc1cc(C(F)(F)F)cc(C(F)(F)F)c1` (stereo unspecified) is 2 nM; for `CN(CC(c1ccc(F)cc1Cl)N1CCC(N2CCCCC2)CC1)C(=O)Cc1cc(C(F)(F)F)cc(C(F)(F)F)c1` (stereo unspecified) it is 1.5 nM. The result for `O=C(Cc1cc(C(F)(F)F)cc(C(F)(F)F)c1)NCC(c1ccc(F)cc1Cl)N1CCC(N2CCCCC2)CC1` (stereo unspecified) reads 1.7 nM; that for `O=C(Cc1cc(C(F)(F)F)cc(C(F)(F)F)c1)NCC(c1cc(Cl)cc(Cl)c1Cl)N1CCC(N2CCCCC2)CC1` (stereo unspecified), 6.4 nM; that for `O=C(Cc1cc(C(F)(F)F)cc(C(F)(F)F)c1)NCC(c1ccccc1)N1CCC(N2CCCCC2)CC1` (stereo unspecified), 5.4 nM.

Take `O=C(Cc1cc(C(F)(F)F)cc(C(F)(F)F)c1)NCC(c1ccc2c(c1)OCCO2)N1CCC(N2CCCCC2)CC1` (stereo unspecified): half-maximal inhibition (IC50) was put at 140 nM. For the compound `COc1ccccc1C(CNC(=O)Cc1cc(C(F)(F)F)cc(C(F)(F)F)c1)N1CCCCC1` (stereo unspecified), the IC50 was determined as 250 nM.

As for `COc1ccccc1C(CNC(=O)Cc1ccc(Cl)c(Cl)c1)N1CCN(C2CCCCC2)CC1` (stereo unspecified), the IC50 was 280 nM. For the compound `CN(CC(c1cccc2c1OCO2)N1CCC(N2CCCCC2)CC1)C(=O)Cc1cc(C(F)(F)F)cc(C(F)(F)F)c1` (stereo unspecified), it took 1.8 nM to reach half-maximal inhibition (IC50). `CN(CC(c1ccc(F)c(Cl)c1)N1CCC(N2CCCCC2)CC1)C(=O)Cc1cc(C(F)(F)F)cc(C(F)(F)F)c1` (stereo unspecified) returned an IC50 of 1.7 nM. `O=C(Cc1cc(C(F)(F)F)cc(C(F)(F)F)c1)NCC(c1ccccc1Br)N1CCC(N2CCCCC2)CC1` (stereo unspecified) had a half-inhibitory concentration (IC50) of 0.88 nM. Consider `COc1ccccc1C(CNC(=O)Cc1ccc(Cl)cc1)N1CCN(C2CCCCC2)CC1` (stereo unspecified), for which the IC50 was found to be 850 nM.

The compound `O=C(Cc1cc(C(F)(F)F)cc(C(F)(F)F)c1)NCC(c1ccc(F)c(Cl)c1)N1CCC(N2CCCCC2)CC1` (stereo unspecified) returned an IC50 of 2.9 nM.
